Laboratory results from paper PMC10397409, “The action of physiological and synthetic steroids on the calcium channel CatSper in human sperm” (Frontiers in Cell and Developmental Biology, 2023).
Where two headings read alike, the source gives them in different places.

Key:
[1] = target: T1, CatSper (Homo sapiens, UniProt Q7RTX7+Q86XQ3+Q8NEC5+Q96P56); assay: Inhibition of P4-induced Ca2+ influx in human sperm (screen 2 inhibitors); type: cell-based; conditions: for Max P4 inhibition (%) (± SD): 3 independent experiments
T1 construct: Motile spermatozoa were selected by a ‘swim-up’ procedure; endogenous in cells; host or cells: motile human spermatozoa (swim-up) from healthy donors

[2] = system: human sperm; assay: Acrosome reaction in live human sperm (PSA-FITC flow cytometry); type: cell-based; conditions: 45 min; for cells with induced acrosome reaction: steroid 10 µM, capacitated sperm, increase not significant
Procedure: The evaluation of acrosome reaction in live human sperm cells was performed using a modified version of a previously described method ([Zoppino et al., 2012]). Briefly, swim-up recovered motile spermatozoa were allowed to capacitate for 4 h at 37°C in capacitating media (HTF+) containing: 93.8 mM NaCl, 4.7 mM KCl, 0.2 mM MgSO4, 0.369 mM KH2PO4, 2.04 mM CaCl2, 20.98 mM HEPES, 2.78 mM glucose, 21.4 mM Na-lactate, 25 mM NaHCO3, 6.6 µM Na-pyruvate, and the pH was adjusted to 7.35. Capacitated sperm were then incubated for 30 min with 5 μg/mL Pisum sativum agglutinin conjugated with fluorescein isothiocyanate (PSA-FITC) and 10 μg/mL Hoechst-33342. Samples were centrifuged at 700 x g for 10 min at room temperature to remove excess dye and resuspended in HTF+. Sperm were then incubated for 45 min in the absence (DMSO) or presence of the steroids at 10 μM, or positive control P4 at 10 µM. The ionophore A23187 was also used as a positive control and incubated with sperm at 2 µM for 30 min only. PI (0.5 μg/mL) was then added to all samples which were analyzed using BDFACSAria. FITC-PSA fluorescence was detected by excitation at 475 nm and emission at 560/35 nm, PI was detected by excitation at 530 nm and emission at 675/75 nm and Hoechst was detected by excitation at 346 nm and emission at 460 nm. Hoechst-positive and PI-negative cells were classified as live cells. Doublet exclusion was performed by two-dimensional dot plot analysis of forward-scatter width (FSC-W) versus forward-scatter height (FSC-H), and side-scatter width (SSC-W) versus side-scatter height (SSC-H) on the pre-selected singlets. Data were collected from 40,000 […] per sample to define the sperm population. Based on the selected population, PI-negative and PSA-FITC-positive cells were selected as live acrosome reacted cells, whereas PI-negative and PSA-FITC-negative cells were selected as live acrosome intact cells.

[3] = IC50 (±SD), inhibition of P4-induced Ca2+ response, dose-response 90 µM to 0.3 nM
[4] = Mean IC50 (P4) µM (±SD), P4-induced response, pooled from 3 independent experiments

SMILES | Max P4 inhibition (%) (± SD) [1] | IC50 [1, 3] | IC50 [1, 4] | cells with induced acrosome reaction [2] | IC50 ([1]; inhibition of P4-induced Ca2+ response, dose-response 90 µM to 0.3 nM, read-out: IC50 (±SD)) | effect on acrosome reaction (AR) ([2]; steroids 10 µM, P4 10 µM)
C[C@]12CC[C@H](O)C[C@@H]1CC[C@@H]1[C@@H]2CC[C@]2(C)C(=O)CC[C@@H]12 [Epiandrosterone] | 72 (±2) % | 0.628 µM | 0.625 µM | more than 10% | – | –
CC(=O)[C@H]1CC[C@H]2[C@@H]3CCC4=CC(=O)CC[C@]4(C)[C@H]3CC[C@]12C [Progesterone] | 79 (±7) % | – | – | – | 0.006 µM | only slightly increased the AR
CC(=O)[C@H]1CC[C@H]2[C@@H]3CC=C4C[C@@H](O)CC[C@]4(C)[C@H]3CC[C@]12C [Pregnenolone] | 82 (±5) % | 0.199 µM | – | more than 10% | – | –
C[C@]12Cc3c[nH]nc3C[C@@H]1CC[C@@H]1[C@@H]2CC[C@@]2(C)[C@H]1CC[C@]2(C)O [Stanozolol] | 96 (±2) % | 0.194 µM | 0.19 µM | more than 10% | – | –
